# In patent US8252764B2, “Compositions and methods of use of targeting peptides against placenta and adipose tissues” (priority 2000, dated 2012):
# Peptide text beside a SMILES is read from it.
# Legend:
# HUVECs [1] = assay: HUVEC chemotaxis assay (Boyden chamber); type: cell-based, human; conditions: 1 mM, VEGF-A (10 ng/ml), Boyden chamber
# Method: FIG. 33. […] (SEQ ID NO:56) inhibits HUVEC migration. HUVECs were stimulated with VEGF-A (10 ng/ml). The assay was performed in a Boyden microchemotaxis chamber, and cells were allowed to migrate through an 8-μm pore filter for 5 h at 37° C. […] (SEQ ID NO:57) (control) and […] (SEQ ID NO:56) peptides were tested at 1 mM concentration. Migrated cells were stained and five high-power fields (magnitude 100×) for each microwell were counted. Error bars are the standard error of the means of triplicate microwells.
# A cell migration assay was performed in a 48-well microchemotaxis chamber (NeuroProbe, Gaithersburg, Md.) according to Bussolini et al. (1995). Polyvinylpyrrolidone-free polycarbonate filters (Nucleopore, Cambridge, Mass.) with 8-μm pores were coated with 1% gelatin for 10 min at room temperature and equilibrated in M199 medium supplemented with 2% FCS. […] (SEQ ID NO:56) or control […] (SEQ ID NO:57) peptide (1 mM) was placed in the lower compartment of a Boyden chamber in M199 medium supplemented with 2% FCS and 10 ng/ml VEGF-A (R&D System). Subconfluent cultures that had been starved overnight were harvested in PBS containing 2.5 mM EDTA, washed once in PBS, and resuspended in M199 medium containing 2% FCS at a final concentration of 2×10^6 cells/ml. […] Five random high-power fields (magnitude 100×) were counted in each well. […]
# HUVECs [2] = assay: Three-dimensional cell culture on Matrigel; type: cell-based, human; conditions: HUVECs on three-dimensional matrix gel, not shown
# Method: Matrigel (Collaborative Research, Bedford, Mass.) was added at 100 μl per well to 48-well tissue culture plates and allowed to solidify for 10 min at 37° C. HUVECs were starved for 24 h in M199 medium supplemented with 2% FCS before being harvested in PBS containing 2.5 mM EDTA. 10^4 cells were gently added to each of the triplicate wells and allowed to adhere to the gel coating for 30 min at 37° C. Then, medium was replaced with indicated concentrations of […] (SEQ ID NO:56) or […] (SEQ ID NO:57) peptides in complete medium. The plates were photographed after 24 h with an inverted microscope (Canon). The assay was repeated three times.
# SK-RC-49/APA cells = assay: Phage binding specificity assay on SK-RC-49/APA cells; type: cell-based; conditions: soluble peptide
# Method: The cell binding assay was performed with an input of 10^9 TU as described for the cell panning. The specificity was confirmed by adding […] (SEQ ID NO:56) peptide to the binding medium in increasing concentrations. For phage binding on immunocaptured APA, wells were blocked for 1 h at room temperature with PBS/3% BSA and incubated with 10^9 TU for 1 h at room temperature in 50 μl PBS/3% BSA. After eight washes in PBS/1% BSA/0.01% Tween-20 and two washes in PBS, phage were rescued by adding 200 μl of exponentially growing K91Kan E. coli. Each experiment was repeated at least three times.
# [3] = system: chicken chorioallantoic membrane (CAM); assay: CAM assay for angiogenesis; type: in vivo
# Method: In vivo angiogenesis was evaluated by a CAM assay (Ribatti et al., 1994). Fertilized eggs from White Leghorn chickens were maintained in constant humidity at 37° C. On the third day of incubation, a square window was opened in the eggshell and 2-3 ml of albumen was removed to detach the developing CAM from the shell. The window was sealed with a glass plate of the same size and the eggs were returned to the incubator. At day 8, 1 mm^3 sterilized gelatin sponges (Gelfoam, Upjohn Co, Kalamazoo, […]) were adsorbed with VEGF-A (20 ng, R&D System) and either […] (SEQ ID NO:56) or control […] (SEQ ID NO:57) peptide (1 mM) in 3 μl PBS and implanted on the top of the growing CAMs under sterile conditions. CAMs were examined daily until day 12 and photographed in ovo with a Leica stereomicroscope. Capillaries emerging from the sponge were counted. The assay was repeated twice.
# aminopeptidase N = aminopeptidase N (Homo sapiens, UniProt P15144); assay: Aminopeptidase N activity; type: biochemical; conditions: data not shown
# aminopeptidase N, sequence (P15144 whole entry, species assumed): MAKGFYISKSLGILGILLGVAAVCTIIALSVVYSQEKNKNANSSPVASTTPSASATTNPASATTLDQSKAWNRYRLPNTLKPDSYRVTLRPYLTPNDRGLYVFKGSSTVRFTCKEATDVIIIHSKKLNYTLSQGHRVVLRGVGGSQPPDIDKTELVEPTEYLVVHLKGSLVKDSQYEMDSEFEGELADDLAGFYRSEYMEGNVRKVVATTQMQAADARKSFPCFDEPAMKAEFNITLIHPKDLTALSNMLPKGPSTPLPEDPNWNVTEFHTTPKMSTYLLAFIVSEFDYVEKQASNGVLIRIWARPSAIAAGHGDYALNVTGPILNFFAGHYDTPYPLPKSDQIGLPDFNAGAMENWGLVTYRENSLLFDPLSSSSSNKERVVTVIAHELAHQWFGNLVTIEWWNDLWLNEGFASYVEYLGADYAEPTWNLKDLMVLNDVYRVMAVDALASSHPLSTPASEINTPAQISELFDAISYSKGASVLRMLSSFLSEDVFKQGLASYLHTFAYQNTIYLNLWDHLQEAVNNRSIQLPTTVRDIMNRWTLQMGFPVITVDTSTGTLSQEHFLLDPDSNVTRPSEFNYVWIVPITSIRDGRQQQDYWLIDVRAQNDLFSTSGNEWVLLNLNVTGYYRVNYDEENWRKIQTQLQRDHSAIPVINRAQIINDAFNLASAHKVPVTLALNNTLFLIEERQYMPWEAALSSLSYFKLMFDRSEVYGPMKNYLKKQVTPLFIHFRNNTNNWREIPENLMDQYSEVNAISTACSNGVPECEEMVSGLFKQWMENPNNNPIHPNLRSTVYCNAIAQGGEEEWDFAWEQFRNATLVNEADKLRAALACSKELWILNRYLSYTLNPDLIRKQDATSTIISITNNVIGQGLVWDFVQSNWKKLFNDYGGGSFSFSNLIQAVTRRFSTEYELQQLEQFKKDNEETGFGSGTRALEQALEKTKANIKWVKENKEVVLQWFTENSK
# Aminopeptidase A (APA) = target: T1, Aminopeptidase A (APA) (Homo sapiens, UniProt Q07075); assay: APA enzyme assay; type: biochemical
# T1 construct: transfected with an expression vector encoding full-length APA cDNA; expressed in transfected cells; host or cells: SK-RC-49 renal carcinoma cells, stably transfected (SK-RC-49/APA)
# T1 sequence (Q07075 whole entry): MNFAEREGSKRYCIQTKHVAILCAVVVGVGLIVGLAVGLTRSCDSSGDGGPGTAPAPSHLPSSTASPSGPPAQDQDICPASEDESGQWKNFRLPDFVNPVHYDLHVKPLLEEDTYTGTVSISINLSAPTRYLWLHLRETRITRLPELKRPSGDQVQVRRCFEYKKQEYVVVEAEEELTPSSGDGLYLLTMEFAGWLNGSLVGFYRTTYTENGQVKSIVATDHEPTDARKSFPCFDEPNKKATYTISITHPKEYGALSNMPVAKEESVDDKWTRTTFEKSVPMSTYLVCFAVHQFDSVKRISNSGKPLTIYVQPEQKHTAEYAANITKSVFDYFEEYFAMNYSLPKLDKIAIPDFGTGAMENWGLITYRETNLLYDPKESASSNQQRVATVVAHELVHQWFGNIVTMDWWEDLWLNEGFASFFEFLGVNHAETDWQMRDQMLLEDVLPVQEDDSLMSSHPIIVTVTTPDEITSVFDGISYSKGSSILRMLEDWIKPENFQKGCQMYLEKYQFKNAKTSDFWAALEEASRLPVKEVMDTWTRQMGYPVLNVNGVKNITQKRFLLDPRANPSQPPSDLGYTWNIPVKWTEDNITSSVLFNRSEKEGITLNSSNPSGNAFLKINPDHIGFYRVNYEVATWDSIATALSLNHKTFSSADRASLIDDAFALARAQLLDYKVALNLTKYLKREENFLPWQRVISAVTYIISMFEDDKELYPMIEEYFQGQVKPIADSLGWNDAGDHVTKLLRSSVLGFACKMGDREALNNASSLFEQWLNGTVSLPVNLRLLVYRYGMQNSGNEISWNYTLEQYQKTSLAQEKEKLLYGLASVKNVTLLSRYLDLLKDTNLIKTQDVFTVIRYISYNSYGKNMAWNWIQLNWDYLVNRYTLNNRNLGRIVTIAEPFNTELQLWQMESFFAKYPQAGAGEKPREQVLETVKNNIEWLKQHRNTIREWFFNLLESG
# HUVECs [4] = assay: HUVEC cell growth assay (crystal violet); type: cell-based, human; conditions: 1 mM, VEGF-A (10 ng/ml)
# Method: FIG. 34. […] (SEQ ID NO:56) inhibits HUVEC proliferation. Cells were stimulated with VEGF-A (10 ng/ml), and growth was evaluated at the indicated times by a colorimetric assay based on crystal violet staining. Error bars are the standard error of the means of triplicate wells. Each experiment was repeated at least twice with similar results.
# HUVECs were seeded in 48-well plates (10^4 cells/well) and allowed to attach for 24 h in complete M199 medium. The cells were then starved in M199 medium containing 2% FCS for 24 h. […] (SEQ ID NO:56) or control […] (SEQ ID NO:57) peptide (1 mM) was added to the wells in medium containing 2% FCS and 10 ng/ml VEGF-A (R&D System, Abingdom, UK). After incubation for the indicated times, cells were fixed in 2.5% glutaraldehyde, stained with 0.1% crystal violet in 20% methanol, and solubilized in 10% acetic acid. All treatments were done in triplicate. Cell growth was evaluated by measuring the O.D. at 590 nm in a microplate reader (Bio-Rad Laboratories, Hercules, Calif.). A calibration curve was established and a linear correlation between O.D. and cell counts was observed between 10^3 and 10^5 cells.
compound,measurement,setting,value
CC[C@H](C)[C@H](NC(=O)[C@H](CO)NC(=O)[C@H](CCC(=O)O)NC(=O)[C@H](CS)NC(=O)[C@H](CCC(=O)O)NC(=O)[C@H](CCCNC(=N)N)NC(=O)[C@@H]1CCCN1C(=O)[C@@H](N)CS)C(=O)N[C@@H](CS)C(=O)O (H-CPRECESIC-OH),inhibition of chemotaxis of HUVECs,HUVECs [1],70%
same,formation of capillary-like network,HUVECs [2],progressive impairment of the formation of this network
same,effect on binding of CYNLCIRECESICGADGACWTWCADGCSRSC phage,SK-RC-49/APA cells; data not shown,displaced
same,competition with CPKVCPRECESNC phage for binding to SK-RC-49/APA cells,SK-RC-49/APA cells; not shown,competed
same,inhibition of neovascularization induced by VEGF-A,"[3]; 1 mM, number of capillaries emerging from the sponge",40%
same,BLOOD VESSEL NUMBERS,"[3]; VEGF-A 20 ng, peptide 1 mM, mean and standard error, two experiments",5.5 ± 1.41
same,effect on aminopeptidase N activity,aminopeptidase N,did not affect the activity
same,IC50,"Aminopeptidase A (APA); SK-RC-49/APA cells, α-glutamyl-p-nitroanilide, 2 h at 37° C., read-out: IC50 for APA enzyme inhibition",800 µM
same,reduction of APA enzyme activity,Aminopeptidase A (APA); at the highest concentration tested,60%
same,inhibition of cell proliferation,HUVECs [4],50%
